Data as given in US20140366440A1, “METHOD FOR PRODUCING CLONE SEEDLINGS” (OKAYAMA PREFECTURE, priority 2009, published 2014).

How the values were obtained:
E. uro-grandis A = assay: Rooting of cuttings, oxidized glutathione solution sprayed to supporter; type: in vivo, crossbreed of eucalyptus urophylla and eucalyptus grandis; conditions: three weeks
Method: A crossbreed of eucalyptus urophylla and eucalyptus grandis (hereinafter, abbreviated as an “E. uro-grandis”) (Line name: A) was used as a material of a cutting. Specifically, a graft grown to have a length of about 5 cm to 20 cm, about one to three joints, and about two to six leaves was cut out from a mother tree, and a tip of each leaf was cut off by cutting off about a half from the tip thereof. In this way, the cutting was prepared.
A composite soil of carbonized chaff, coconut fiber, and vermiculite which had been put into a seedling pot (3 cm in inner diameter×15 cm in height) in advance was used as a supporter. Oxidized glutathione was dissolved in water so that an oxidized glutathione concentration became 50 mg/L. The oxidized glutathione solution was thus prepared. The oxidized glutathione solution was sprayed to the seedling pot from the above by use of a watering can so that the supporter was soaked with the oxidized glutathione solution (50 mg/L) by spraying a spray amount of water of about 8.5 ml of the oxidized glutathione solution per seedling pot. Thereafter, a base of the cutting was planted to the supporter. After this planting, the cutting was bred for three weeks in a green house which shielded sunlight by 50%. In the green house, a high humidity (80% or more) was kept by frequently spraying mist. After three weeks from the planting, a rooting ratio was calculated from the number of rooted cuttings.
A seedling was bred in the same way as Example 4, except that a solution having an oxidized glutathione concentration of 200 mg/L was used as the oxidized glutathione solution.
A seedling was bred in the same way as Example 4, except that a solution having an oxidized glutathione concentration of 500 mg/L was used as the oxidized glutathione solution.
A seedling was bred in the same way as Example 4, except that a solution having an oxidized glutathione concentration of 1000 mg/L was used as the oxidized glutathione solution.

[1] = system: E. globulus wild-type (tissue culture); assay: Rooting of tissue-culture shoots planted to supporter infiltrated with rooting medium containing oxidized glutathione; type: in vivo, Eucalyptus globulus; conditions: for Rooting rate (%): 27 test pieces; for Number of rooted shoots: of 27 test pieces
From the text: A foliage (shoot) grown to have a length of 2 cm to 5 cm was cut from a multiple shoot induced from a wild-type Eucalyptus globulus (hereinafter, abbreviated simply as an “E. globulus”). Inducing the multiple shoot followed a method described in Japanese Patent Application Publication, Tokukaihei, No. 8-228621 A. Specifically, a tissue (terminal bud and axillary bud) was collected from E. globulus (wild type), and the tissue thus collected was subjected to surface disinfection by immersing the tissue for twenty minutes in an sodium hypochlorite aqueous solution containing an amount of available chlorine of 1%. Then, the tissue which had been subjected to the surface disinfection was washed by sterilized water and was planted to a solid medium (MS medium containing sucrose of […], BA of 0.2 mg/L, and gellan gum of […]), and its bud was opened. Within three and four weeks after the culturing of the foliage was started, the culturing of the foliage was subcultured in a medium having a composition identical with that described above. […] Note that the foliages from the multiple shoot was grown in a medium having the composition identical with that used for forming the multiple shoot under the condition identical with that used for forming the multiple shoot.
(§1) A base of the shoot thus obtained was planted to a foaming phenolic resin porous supporter (Manufactured by Smithers-Oasis Company; Product name: Oasis). […] The base of the shoot was cultured for two months in carbon dioxide gas of 1000 ppm at a temperature of 25° C. under irradiation of red light having photosynthesis photon flux density of 51.3 μmol/m^2/S and having a wavelength component of 650 nm to 670 nm to a wavelength component of 450 nm to 470 nm at a ratio of 8.2:1.8. The culturing was carried out with a culture container, which was a cube container (maximum size of about 10 cm to 11.5 cm in length×10 cm to 11.5 cm in width×10.0 cm in height) having a shape whose bulge was slightly protruded. […] Carbon dioxide gas outside the culture container was allowed to enter the culture container through this carbon dioxide gas permeable membrane covering the opening. Accordingly, carbon dioxide gas concentration inside the culture container was about 1000 ppm due to the permeation of the carbon dioxide gas through the film covering the opening of the culture container. The culture container was irradiated with red light by use of a light irradiation device (Product name: CCFL unit, maker's name: Nippon Medical& Chemical Instruments CO., LTD.). Further, humidity in the culture container is adjusted by sealing the culture container with Parafilm.
(§2) Nine shoots were planted per culture container. A rooting rate was calculated from the number of test pieces of the shoot and the number of shoots (the number of rooted shoots) which had been rooted after the foliage was cultured for two months.

E. globulus (Clone B) = assay: Rooting of shoots with wounded base in rooting medium containing oxidized glutathione; type: in vivo, Eucalyptus globulus; conditions: for Rooting rate (%): 9 test pieces; for Number of rooted shoots: of 9 test pieces
Method: as §1, §2
The culture was carried out in the same way as Example 1, except that genetically modified E. globulus (Line name: Clone B) was used and a base of the shoot was wounded by a pair of scissors. Note that the base of the shoot (the aforementioned cross-sectional surface) was cut in two directions orthogonal to each other by use of a pair of scissors, and therefore the base was wounded so as to have a cross-shaped wound seen from a front direction.

E. globulus (Clone G) = assay: Rooting of shoots with wounded base, line whose rooting is extremely difficult; type: in vivo, Eucalyptus globulus; conditions: Example 20: 50 mg/L in medium
Method: as §1, §2

E. globulus (Clone I) = assay: as above; type: in vivo, Eucalyptus globulus; conditions: Example 22: 50 mg/L in medium
Method: as §1, §2

E. globulus (Clone H) = assay: as above; type: in vivo, Eucalyptus globulus; conditions: Example 21: 50 mg/L in medium
Method: as §1, §2

[2] = Example 2: 50 mg/L in medium, two months
[3] = Example 3: 75 mg/L in medium, two months

With oxidized glutathione as the substance, how does the “Rooting rate (%)” value (E. uro-grandis A; Example 4: 50 mg/L solution, spraying to supporter (about 8.5 ml per pot), 44 test pieces) read?
The value was 75.0%.

And the “Number of rooted shoots” value (E. uro-grandis A; Example 4: 50 mg/L, spraying to supporter, of 44 test pieces)?
Its value is 33.

What about the “Rooting rate (%)” value (E. uro-grandis A; Example 5: 200 mg/L, spraying to supporter, 44 test pieces) of the same substance?
Its value is 77.3%.

What about the “Number of rooted shoots” value (E. uro-grandis A; Example 5: 200 mg/L, spraying to supporter, of 44 test pieces) of the same substance?
The value was 34.

What about the “Rooting rate (%)” value (E. uro-grandis A; Example 6: 500 mg/L, spraying to supporter, 44 test pieces) of the same substance?
The value was 84.1%.

And the “Number of rooted shoots” value (E. uro-grandis A; Example 6: 500 mg/L, spraying to supporter, of 44 test pieces)?
Its value is 37.

What about the “Rooting rate (%)” value (E. uro-grandis A; Example 7: 1000 mg/L, spraying to supporter, 176 test pieces) of the same substance?
The value was 72.7%.

And the “Number of rooted shoots” value (E. uro-grandis A; Example 7: 1000 mg/L, spraying to supporter, of 176 test pieces)?
Its value is 128.

And the “Rooting rate (%)” value ([1]; Example 1: 25 mg/L in medium, adding glutathione to rooting medium (with STS, ascorbic acid, IBA), cultured two months)?
The value was 74.1%.

What about the “Number of rooted shoots” value ([1]; Example 1: 25 mg/L in medium, two months) of the same substance?
The value was 20.

And the “Rooting rate (%)” value [1, 2]?
Its value is 85.2%.

What about the “Number of rooted shoots” value [1, 2] of the same substance?
Its value is 23.

And the “Rooting rate (%)” value [1, 3]?
The value was 51.9%.

And the “Number of rooted shoots” value [1, 3]?
The value was 14.

What about the “Rooting rate (%)” value (E. globulus (Clone B); Example 14: 25 mg/L in medium) of the same substance?
The value was 88.9%.

And the “Number of rooted shoots” value (E. globulus (Clone B); Example 14: 25 mg/L in medium)?
Its value is 8.

And the “Rooting rate (%)” value (E. globulus (Clone B); Example 15: 75 mg/L in medium)?
Its value is 77.8%.

And the “Number of rooted shoots” value (E. globulus (Clone B); Example 15: 75 mg/L in medium)?
Its value is 7.

And the “Rooting rate (%)” value (E. globulus (Clone G); 18 test pieces)?
The value was 33.3%.

And the “Number of rooted shoots” value (E. globulus (Clone G); of 18 test pieces)?
Its value is 6.

And the “Rooting rate (%)” value (E. globulus (Clone I); 5 test pieces)?
The value was 20.0%.

And the “Number of rooted shoots” value (E. globulus (Clone I); of 5 test pieces)?
Its value is 1.

And the “Rooting rate (%)” value (E. globulus (Clone H); 5 test pieces)?
The value was 40.0%.

And the “Number of rooted shoots” value (E. globulus (Clone H); of 5 test pieces)?
Its value is 2.
